Reference: the CheMixHub viscosity set

Experiment: xn = mol fraction of the nth substance listed

CCC#N + CC(=O)N(C)C
303.15 K, 101.33 kPa
Conditions | viscosity [mPa·s]
x1 = 0.0953 | 0.8264
x1 = 0.2 | 0.7648
x1 = 0.3021 | 0.7092
x1 = 0.3926 | 0.6613
x1 = 0.4985 | 0.6082
x1 = 0.595 | 0.5621
x1 = 0.699 | 0.5131
x1 = 0.795 | 0.4684
x1 = 0.9013 | 0.425

CCOC(=O)OCC + CC(=O)N(C)C
298.15 K, 101 kPa
Conditions | viscosity [mPa·s]
x1 = 0.1371 | 0.925
x1 = 0.2045 | 0.912
x1 = 0.2821 | 0.896
x1 = 0.3603 | 0.881
x1 = 0.4462 | 0.865
x1 = 0.5333 | 0.849
x1 = 0.6265 | 0.831
x1 = 0.7265 | 0.811
x1 = 0.7839 | 0.8
x1 = 0.8296 | 0.79
x1 = 0.8887 | 0.778

CC(C)[C@@H]1CC[C@@H](C)C[C@H]1O + CC(=O)O
100 kPa, x1 = 0.5
Conditions | viscosity [mPa·s]
293.15 K | 11.3
298.15 K | 8.691
303.15 K | 6.904
308.15 K | 5.59
313.15 K | 4.564
318.15 K | 3.843
323.15 K | 3.251

CCC#N + CC(C)(C)O
viscosity [mPa·s], 101 kPa
Conditions | x2 = 0.0744 | x2 = 0.1541 | x2 = 0.2403 | x2 = 0.3272 | x2 = 0.4258 | x2 = 0.5242 | x2 = 0.6146 | x2 = 0.7448 | x2 = 0.8667
298.15 K | 0.4226 | 0.4462 | 0.4934 | 0.5641 | 0.6672 | 0.8059 | 1.024 | 1.526 | 2.346
303.15 K | 0.4138 | 0.4431 | 0.487 | 0.5397 | 0.6276 | 0.739 | 0.9208 | 1.34 | 2.022
308.15 K | 0.3997 | 0.4317 | 0.4754 | 0.5219 | 0.5918 | 0.6821 | 0.8394 | 1.186 | 1.741

Cc1ccccc1C + CC(C)(C)O
308.15 K, 101 kPa
Conditions | viscosity [mPa·s]
x2 = 0.0632 | 0.669
x2 = 0.1246 | 0.679
x2 = 0.204 | 0.677
x2 = 0.2992 | 0.674
x2 = 0.3725 | 0.731
x2 = 0.4258 | 0.777
x2 = 0.4948 | 0.814
x2 = 0.5942 | 0.908
x2 = 0.6887 | 1.028
x2 = 0.7935 | 1.376
x2 = 0.9065 | 1.962

OCCOCCOCCO + CC(C)=O
298.1 K, 101 kPa
Conditions | viscosity [mPa·s]
x1 = 0.2 | 1.038
x1 = 0.4 | 2.75
x1 = 0.5 | 4.48
x1 = 0.6 | 7.168
x1 = 0.8 | 17.04

c1ccc(Oc2ccccc2)cc1 + CC(C)=O
298.15 K, 101 kPa
Conditions | viscosity [mPa·s]
x2 = 0.4843 | 1.339
x2 = 0.7306 | 0.714
x2 = 0.894 | 0.439

Cc1ccccc1C + CC(C)CC(C)(C)C
308.15 K, 101 kPa
Conditions | viscosity [mPa·s]
x2 = 0.1337 | 0.6095
x2 = 0.2492 | 0.5663
x2 = 0.3373 | 0.539
x2 = 0.4352 | 0.5141
x2 = 0.5589 | 0.4878
x2 = 0.6421 | 0.4734
x2 = 0.7365 | 0.4602
x2 = 0.8167 | 0.4525
x2 = 0.917 | 0.4417

Cc1ccccc1C + CC(C)CO
308.15 K, 101 kPa
Conditions | viscosity [mPa·s]
x2 = 0.0649 | 0.669
x2 = 0.1278 | 0.681
x2 = 0.2187 | 0.684
x2 = 0.3335 | 0.77
x2 = 0.4418 | 0.851
x2 = 0.5688 | 0.986
x2 = 0.6291 | 1.064
x2 = 0.7214 | 1.215
x2 = 0.8196 | 1.486
x2 = 0.9023 | 1.835
x2 = 0.9616 | 2.245

CCCCCCCCCCCC + CC(C)O
viscosity [mPa·s], 101.32 kPa
Conditions | 293.15 K | 298.15 K | 303.15 K
x2 = 0.0422 | 1.446 | 1.325 | 1.219
x2 = 0.0957 | 1.424 | 1.306 | 1.191
x2 = 0.2215 | 1.397 | 1.276 | 1.177
x2 = 0.3267 | 1.396 | 1.27 | 1.164
x2 = 0.3943 | 1.407 | 1.28 | 1.167
x2 = 0.4959 | 1.421 | 1.28 | 1.16
x2 = 0.5981 | 1.48 | 1.324 | 1.192
x2 = 0.6957 | 1.566 | 1.392 | 1.243
x2 = 0.8012 | 1.714 | 1.503 | 1.33
x2 = 0.9005 | 1.92 | 1.674 | 1.467
x2 = 0.9502 | 2.101 | 1.815 | 1.58

NC(N)=O + CC(C)O
viscosity [mPa·s], 101 kPa
Conditions | 293.15 K | 298.15 K | 303.15 K | 308.15 K | 313.15 K | 318.15 K | 323.15 K
x1 = 0.02132 | 2.552 | 2.196 | 1.899 | 1.65 | 1.44 | 1.262 | 1.111
x1 = 0.02695 | 2.58 | 2.22 | 1.92 | 1.669 | 1.457 | 1.277 | 1.124
x1 = 0.03401 | 2.6 | 2.243 | 1.944 | 1.693 | 1.481 | 1.301 | 1.147

OCCOCCOCCO + CC(C)O
viscosity [mPa·s], 100 kPa
Conditions | x1 = 0.081 | x1 = 0.1598 | x1 = 0.2401 | x1 = 0.3501 | x1 = 0.44 | x1 = 0.5601 | x1 = 0.6501 | x1 = 0.74 | x1 = 0.8498 | x1 = 0.9398
293.15 K | 4.61 | 6.73 | 9.06 | 12.51 | 15.58 | 20.36 | 24.67 | 29.58 | 36.45 | 43.07
298.15 K | 3.54 | 5.11 | 6.84 | 9.44 | 11.82 | 15.58 | 18.9 | 22.75 | 28.15 | 33.34
303.15 K | 3.21 | 4.58 | 5.98 | 8.15 | 10.07 | 13.01 | 15.62 | 18.54 | 22.62 | 26.49
308.15 K | 2.65 | 3.73 | 4.95 | 6.7 | 8.26 | 10.68 | 12.73 | 15.05 | 18.28 | 21.38
313.15 K | 2.22 | 3.12 | 4.05 | 5.45 | 6.71 | 8.67 | 10.32 | 12.22 | 14.86 | 17.32
318.15 K | 1.97 | 2.79 | 3.63 | 4.83 | 5.88 | 7.5 | 8.82 | 10.32 | 12.42 | 14.36
323.15 K | 1.8 | 2.54 | 3.32 | 4.44 | 5.39 | 6.74 | 7.86 | 9.07 | 10.68 | 12.14
